This note sets out measurements from patent US11834450B2, “Compounds having ((3-nitrophenyl)sulfonyl)acetamide as BCL-2 inhibitors” (Eil Therapeutics, Inc., priority 2021, dated 2023).

Data set [1] in a line: Cell viability assay HEK293 (CellTiter-Glo). Particulars: human, HEK293 cells, read-out: HEK293 (CC50 code). It is filed as cell-based. On the procedure: (§1) Assay Condition: Used culture medium for HEK293-DMEM (PanEco, Cat #C420), for the rest of the cell lines—culture medium RPMI-1640 (PanEco, Cat #C363).
(§2) Assay Procedure: Compounds were prepared as 200× stocks with serial dilution in 100% DMSO with a final concentration of 1×. Dispersed 40 μl in 384-well plates at a concentration of 2000 cells per well for HEK293 and at a concentration of 4000 cells per well for the rest of the cell lines using a robotic station Biomek (Beckman). Before adding compounds, the cells were incubated at 37° C. (HEK293 were incubated for a day before adding compounds).
(§3) A dilution plate was prepared by pouring 78 μl of the appropriate culture medium using a robotic station Biomek (Beckman). Sequentially, using a robotic station, 2 μl of substances were taken and added to 78 μl of culture medium (dilution of compounds 40×). Took from there 10 μl and added to the plates to the cells (dilution of compounds 5×). The plates were incubated for 3 days at a temperature 37° C. After 3 days, 10 μl of CellTiter-Glo (Promega) was added to the cells and the luminescence was measured.

A further data set has as its target T1, BCL-2 (Homo sapiens, UniProt P10415).
T1 construct: purchased BPS Bioscience #50222
The experiment in a line: BCL-2 TR-FRET Assay (primary PPI inhibition). Particulars: 60 min incubation; read-out: BCL2 (IC50 code, BCL-2 TR-FRET). It is filed as binding. Background: In TR-FRET formats the signal depends on donor and acceptor labels being close together.

In another data set the test system is MOLT-4 cells. Put plainly: Cell viability assay MOLT-4 (CellTiter-Glo). The data set is classed as cell-based. The conditions noted are these: Homo sapiens, read-out: MOLT-4 (CC50 code). On the procedure:
as §1, §2, §3
For orientation: In ATP-based viability assays light output follows the ATP content of the culture.

For the next data set, the target named is T2, BCL-XL (Homo sapiens, UniProt Q07817).
T2 construct: purchased BPS Bioscience #50223
Put plainly: BCL-XL TR-FRET Assay (primary PPI inhibition). The data set is classed as binding. Particulars: 60 min incubation; read-out: BCLxL (IC50 code, BCL-XL TR-FRET). On the procedure: BCL-XL TR-FRET Assay (BPS Bioscience, #50223) Assay Condition: The following assay concentrations and times were used: 10.5 ng BCL-XL, 5 ul of 1:100 anti-His Tb-labeled donor, 5 ul of 1:100 Dye-labeled acceptor, 5 ul of 1:80 BCL-XL Peptide Ligand, and 2 ul of test compound, with 60 min incubation time. The results of the assay were read using a Clariostar (BMG Labtech) plate reader with the following parameters: TR FRET, 340 ex/620 and 665 em; 60 μsec Delay; and 500 μsec integration.

The next data set concerns RS4-11 cells. The experiment in a line: Cell viability assay RS4-11 (CellTiter-Glo). The data set is classed as cell-based. The conditions noted are these: Homo sapiens, read-out: RS4-11 (CC50 code). How it is done: as §1, §2, §3
Where [2] appears, read: 72 h, MOLT-4 cells, 3 days, CellTiter-Glo.
Where [3] appears, read: 72 h, RS4-11 cells, 3 days, CellTiter-Glo.

Read-outs that look alike come from different tables or passages of the source.

T1 sequence (P10415 whole entry): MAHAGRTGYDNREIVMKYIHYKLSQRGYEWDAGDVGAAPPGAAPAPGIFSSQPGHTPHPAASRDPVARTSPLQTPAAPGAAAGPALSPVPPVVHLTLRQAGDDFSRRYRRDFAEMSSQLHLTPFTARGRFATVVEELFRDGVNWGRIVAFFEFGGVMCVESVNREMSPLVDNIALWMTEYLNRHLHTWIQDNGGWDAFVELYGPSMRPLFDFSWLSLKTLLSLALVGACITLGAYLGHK
T2 sequence (Q07817 whole entry): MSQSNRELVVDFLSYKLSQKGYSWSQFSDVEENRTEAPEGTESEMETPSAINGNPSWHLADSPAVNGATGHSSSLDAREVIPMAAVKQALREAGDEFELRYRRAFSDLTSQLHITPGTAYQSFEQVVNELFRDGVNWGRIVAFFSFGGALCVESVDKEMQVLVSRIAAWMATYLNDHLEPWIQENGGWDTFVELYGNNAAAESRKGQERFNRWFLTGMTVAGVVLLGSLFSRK

For the compound `O=C(NS(=O)(=O)c1ccc(NCC2CCOCC2)c([N+](=O)[O-])c1)c1ccc(N2CCC(CN3C(=O)C4(CCCC4)C3c3ccc(Cl)cc3)CC2)cc1Oc1cnc2[nH]ccc2c1` (centres unmarked) [Compound 1, 4-[4-[[1-(4-chlorophenyl)-3-oxo-2-azaspiro[3.4]octan-2-yl]methyl]-1-piperidyl]-N-[3-nitro-4-(tetrahydropyran-4-ylmethylamino)phenyl]sulfonyl-2-(1H-pyrrolo[2,3-b]pyridin-5-yloxy)benzamide], in data set [1], the CC50 at 3 days was greater than 25 µM. Also, the half-maximal inhibitory concentration (IC50) is 0.01 to 0.05 µM on BCL-2 and greater than 4 µM at BCL-XL. Moreover, the CC50 in the data set on MOLT-4 cells (setting [2]) was 2 to 10 µM; in the data set with RS4-11 cells (setting [3]) it was greater than 0.2 µM.

`O=C(NS(=O)(=O)c1ccc(NCC2CCOCC2)c([N+](=O)[O-])c1)c1ccc(N2CCN(C(c3ccccc3)c3ccc(F)cc3)CC2)cc1Oc1ccc2[nH]ccc2c1` (centres unmarked) [Compound 12, 4-[4-[(4-fluorophenyl)-phenyl-methyl]piperazin-1-yl]-2-(1H-indol-5-yloxy)-N-[3-nitro-4-(tetrahydropyran-4-ylmethylamino)phenyl]sulfonyl-benzamide]: the CC50 at 3 days in data set [1] was greater than 25 µM. Moreover, the IC50 on BCL-2 was greater than 0.05 µM; at BCL-XL, greater than 4 µM. Besides, the values for the half-maximal cytotoxic concentration (CC50) in the data set on MOLT-4 cells (setting [2]) and with RS4-11 cells (setting [3]) were greater than 10 µM and greater than 0.2 µM, respectively.

As for `O=C(NS(=O)(=O)c1ccc(NCC2CCOCC2)c([N+](=O)[O-])c1)c1ccc(N2CCN(C(c3ccc(F)cc3)c3ccc(F)cc3)CC2)cc1Oc1ccc2[nH]ccc2c1` [Compound 16, 4-[4-[bis(4-fluorophenyl)methyl]piperazin-1-yl]-2-(1H-indol-5-yloxy)-N-[3-nitro-4-(tetrahydropyran-4-ylmethylamino)phenyl]sulfonyl-benzamide], the CC50 at 3 days in data set [1] was greater than 25 µM. In addition, the values for the IC50 at BCL-2 and at BCL-XL were greater than 0.05 µM and greater than 4 µM, respectively. Moreover, the 50% cytotoxic concentration (CC50) in the data set on MOLT-4 cells (setting [2]) was greater than 10 µM; in the data set on RS4-11 cells (setting [3]), greater than 0.2 µM.

As to `O=C(NS(=O)(=O)c1ccc(NCC2CCOCC2)c([N+](=O)[O-])c1)c1ccc(N2CCN(C(c3ccccc3)c3ccccc3)CC2)cc1Oc1cnc2[nH]ccc2c1` [Compound 17, 4-(4-benzhydrylpiperazin-1-yl)-N-[3-nitro-4-(tetrahydropyran-4-ylmethylamino)phenyl]sulfonyl-2-(1H-pyrrolo[2,3-b]pyridin-5-yloxy)benzamide], the CC50 at 3 days in data set [1] was greater than 25 µM. Further, the IC50 on BCL-2 was greater than 0.05 µM; at BCL-XL it was greater than 4 µM. Also, the CC50 was greater than 10 µM in the data set on MOLT-4 cells (setting [2]) and greater than 0.2 µM in the data set on RS4-11 cells (setting [3]).

Consider `O=C(NS(=O)(=O)c1ccc(NCC2CCOCC2)c([N+](=O)[O-])c1)c1ccc(N2CCN(C(c3ccccc3)c3ccccc3)CC2)cc1Oc1ccc2[nH]ccc2c1` [Compound 19, 4-(4-benzhydrylpiperazin-1-yl)-2-(1H-indol-5-yloxy)-N-[3-nitro-4-(tetrahydropyran-4-ylmethylamino)phenyl]sulfonyl-benzamide], for which, in data set [1], the 50% cytotoxic concentration (CC50) at 3 days was greater than 25 µM. Also, the IC50 was greater than 0.05 µM on BCL-2 and greater than 4 µM at BCL-XL. Further, the figures for the 50% cytotoxic concentration (CC50) in the data set with MOLT-4 cells (setting [2]) and in the data set with RS4-11 cells (setting [3]) were greater than 10 µM and greater than 0.2 µM, respectively.

As to `O=C(NS(=O)(=O)c1ccc(NCC2CCOCC2)c([N+](=O)[O-])c1)c1ccc(N2CCC(CN3CC4(CCCC4)C3c3ccccc3)CC2)cc1Oc1cnc2[nH]ccc2c1` (centres unmarked) [Compound 27, N-[3-nitro-4-(tetrahydropyran-4-ylmethylamino)phenyl]sulfonyl-4-[4-[(3-phenyl-2-azaspiro[3.4]octan-2-yl)methyl]-1-piperidyl]-2-(1H-pyrrolo[2,3-b]pyridin-5-yloxy)benzamide], the CC50 at 3 days in data set [1] was greater than 25 µM. Also, the values for the IC50 at BCL-2 and at BCL-XL were greater than 0.05 µM and 2 to 4 µM, respectively. In addition, the CC50 is 2 to 10 µM with MOLT-4 cells (MOLT-4, 72 h) and greater than 0.2 µM in the data set on RS4-11 cells (RS4-11, 72 h).

Turning to `O=C(NS(=O)(=O)c1ccc(NCC2CCOCC2)c([N+](=O)[O-])c1)c1ccc(N2CCC(CN3CCCCC3c3ccc(Cl)cc3)CC2)cc1Oc1cccc(F)c1` (centres unmarked) [Compound 62, 4-[4-[[2-(4-chlorophenyl)-1-piperidyl]methyl]-1-piperidyl]-2-(3-fluorophenoxy)-N-[3-nitro-4-(tetrahydropyran-4-ylmethylamino)phenyl]sulfonyl-benzamide], in data set [1], the CC50 at 3 days lay within 10 to 25 µM. Moreover, the IC50 at BCL-2 is greater than 0.05 µM; on BCL-XL, no more than 2 µM. In addition, the cytotoxic concentration (CC50) in the data set on MOLT-4 cells (setting [2]) was 2 to 10 µM; with RS4-11 cells (setting [3]), greater than 0.2 µM.

With `O=C(NS(=O)(=O)c1ccc(NCC2CCOCC2)c([N+](=O)[O-])c1)c1ccc(N2CCC(CN3CCCCC3c3ccc(Cl)cc3)CC2)cc1Oc1cncc(CO)c1` (centres unmarked) [Compound 64, 4-[4-[[2-(4-chlorophenyl)-1-piperidyl]methyl]-1-piperidyl]-2-[[5-(hydroxymethyl)-3-pyridyl]oxy]-N-[3-nitro-4-(tetrahydropyran-4-ylmethylamino)phenyl]sulfonyl-benzamide], the CC50 at 3 days in data set [1] was in the range of 10 to 25 µM. Also, the 50% inhibitory concentration (IC50) on BCL-2 was greater than 0.05 µM; at BCL-XL, greater than 4 µM. Also, the CC50 in the data set with MOLT-4 cells (setting [2]) was greater than 10 µM; in the data set with RS4-11 cells (setting [3]), greater than 0.2 µM.

With `Cn1ncc(Oc2cc(N3CCC(CN4CCCCC4c4ccc(Cl)cc4)CC3)ccc2C(=O)NS(=O)(=O)c2ccc(NCC3CCOCC3)c([N+](=O)[O-])c2)cc1=O` (centres unmarked) [Compound 65, 4-[4-[[2-(4-chlorophenyl)-1-piperidyl]methyl]-1-piperidyl]-2-(1-methyl-6-oxo-pyridazin-4-yl)oxy-N-[3-nitro-4-(tetrahydropyran-4-ylmethylamino)phenyl]sulfonyl-benzamide], the CC50 at 3 days in data set [1] was 10 to 25 µM. Moreover, the figures for the half-maximal inhibitory concentration (IC50) at BCL-2 and on BCL-XL were greater than 0.05 µM and greater than 4 µM, respectively. The cytotoxic concentration (CC50) in the data set with MOLT-4 cells (setting [2]) is greater than 10 µM; with RS4-11 cells (setting [3]) it was greater than 0.2 µM.

Consider `O=C(NS(=O)(=O)c1ccc(NCC2CCOCC2)c([N+](=O)[O-])c1)c1ccc(N2CCN(C[C@@H]3CC(F)CN3c3ccc(Cl)cc3)CC2)cc1Oc1cnc2[nH]ccc2c1` (stereo partly drawn) [Compound 66, 4-[4-[[(2S)-1-(4-chlorophenyl)-4-fluoro-pyrrolidin-2-yl]methyl]piperazin-1-yl]-N-[3-nitro-4-(tetrahydropyran-4-ylmethylamino)phenyl]sulfonyl-2-(1H-pyrrolo[2,3-b]pyridin-5-yloxy)benzamide], for which, in data set [1], the cytotoxic concentration (CC50) at 3 days lay within 10 to 25 µM. Further, the results for the IC50 at BCL-2 and at BCL-XL were greater than 0.05 µM and greater than 4 µM, respectively. Also, the half-maximal cytotoxic concentration (CC50) with MOLT-4 cells (setting [2]) was 2 to 10 µM; in the data set on RS4-11 cells (setting [3]), greater than 0.2 µM.

As to `O=C(NS(=O)(=O)c1ccc(NCC2CCOCC2)c([N+](=O)[O-])c1)c1ccc(N2CCN(C[C@H]3[C@H](c4ccc(Cl)cc4)[C@@H]4C=C[C@H]3C4)CC2)cc1Oc1cnc2[nH]ccc2c1` [Compound 68, 4-[4-[[(1R,2R,3R,4S)-3-(4-chlorophenyl)-2-bicyclo[2.2.1]hept-5-enyl]methyl]piperazin-1-yl]-N-[3-nitro-4-(tetrahydropyran-4-ylmethylamino)phenyl]sulfonyl-2-(1H-pyrrolo[2,3-b]pyridin-5-yloxy)benzamide], the CC50 at 3 days in data set [1] fell in the range of 10 to 25 µM. In addition, the half-inhibitory concentration (IC50) was greater than 0.05 µM on BCL-2 and greater than 4 µM at BCL-XL. Moreover, the CC50 in the data set with MOLT-4 cells (setting [2]) was 2 to 10 µM; in the data set with RS4-11 cells (setting [3]), greater than 0.2 µM.

For the compound `O=C1CC[C@H](CN2CCN(c3ccc(C(=O)NS(=O)(=O)c4ccc(NCC5CCOCC5)c([N+](=O)[O-])c4)c(Oc4cnc5[nH]ccc5c4)c3)CC2)[C@@H](c2ccc(Cl)cc2)N1` [Compound 70, 4-[4-[[(2S,3R)-2-(4-chlorophenyl)-6-oxo-3-piperidyl]methyl]piperazin-1-yl]-N-[3-nitro-4-(tetrahydropyran-4-ylmethylamino)phenyl]sulfonyl-2-(1H-pyrrolo[2,3-b]pyridin-5-yloxy)benzamide], in data set [1], the CC50 at 3 days lay in the range of 10 to 25 µM. In addition, the figures for the IC50 at BCL-2 and at BCL-XL were greater than 0.05 µM and greater than 4 µM, respectively. For the same compound, the 50% cytotoxic concentration (CC50) is greater than 10 µM with MOLT-4 cells (setting [2]) and greater than 0.2 µM in the data set with RS4-11 cells (setting [3]).

Regarding `O=C(NS(=O)(=O)c1ccc(NCCCN2CCOCC2)c([N+](=O)[O-])c1)c1ccc(N2CCC(CN3CCCCC3c3ccc(Cl)cc3)CC2)cc1Oc1cnc2[nH]ccc2c1` (centres unmarked) [Compound 73, 4-[4-[[2-(4-chlorophenyl)-1-piperidyl]methyl]-1-piperidyl]-N [4-(3-morpholinopropylamino)-3-nitro-phenyl]sulfonyl-2-(1H-pyrrolo[2,3-b]pyridin-5-yloxy)benzamide], the CC50 at 3 days in data set [1] lay in the range of 10 to 25 µM. The IC50 at BCL-2 lay in the range of 0.01 to 0.05 µM; on BCL-XL, 2 to 4 µM. Moreover, the CC50 was 2 to 10 µM with MOLT-4 cells (setting [2]) and greater than 0.2 µM in the data set on RS4-11 cells (setting [3]).

Broadly, the CC50 is the concentration at which the toxic effect on the cells reaches its halfway point. One may read the IC50 as the point on the concentration scale where inhibition reaches its midpoint.
